In patent US8748412B2, “Phenylalanine derivatives and their use as non-peptide GLP-1 receptor modulators” (Argusina Bioscience Inc., priority 2011, dated 2014):

Each compound was assayed against T1, human GLP1R (Homo sapiens, UniProt P43220) (assay: Human GLP-1 receptor transfected cell assay (MRE/CRE-luciferase reporter gene, agonist activity)). Conditions: 6 h; conc. 3.16 μM; percentage of the activity of the control; read-out: Agonist Activity.
T1 construct: expressed in transfected cells; host or cells: CHO cells (ATCC), transient transfection with pCMV-human GLP1R
T1 sequence (P43220 24-463): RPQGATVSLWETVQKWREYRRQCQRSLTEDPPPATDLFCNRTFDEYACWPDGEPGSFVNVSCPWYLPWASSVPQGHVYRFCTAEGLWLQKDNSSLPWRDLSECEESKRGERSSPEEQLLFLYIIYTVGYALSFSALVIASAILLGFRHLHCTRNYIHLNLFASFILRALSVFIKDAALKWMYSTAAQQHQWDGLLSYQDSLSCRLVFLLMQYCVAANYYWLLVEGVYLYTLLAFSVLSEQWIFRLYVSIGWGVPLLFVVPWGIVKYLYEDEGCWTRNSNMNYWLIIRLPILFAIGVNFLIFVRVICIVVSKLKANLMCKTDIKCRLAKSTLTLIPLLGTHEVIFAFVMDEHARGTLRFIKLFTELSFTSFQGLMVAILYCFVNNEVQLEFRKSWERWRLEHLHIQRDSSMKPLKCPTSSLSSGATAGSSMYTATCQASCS
Type: cell-based
Method: The glucagon-like peptide I receptor (GLP1R) is a class B Gs-coupled membrane receptor, an agonist of which activates adenylate cyclase (AC) and elevates intracellular cAMP level. In turn, the high content of secondary messengers can activate the cAMP response element binding protein (CREB), which can translocate into nucleus to activate gene transcription.
A reporter gene based screening assay was established to measure the effect of a compound on GLP1R. In this assay, a compound was incubated with CHO cells transiently transfected with a human GLP1R plasmid and a multiple response element (MRE)/cAMP response element (CRE)-driven luciferase reporter plasmid. Once luciferase was induced by the compound, its specific substrate can be activated to produce light signal for measurement.
Materials used in this assay included: (i) cell line: Chinese hamster ovary (CHO) cells (ATCC); (ii) fetal bovine serum (FBS) (Biochrom Co.); (iii) culture medium: RPMI1640 (Invitrogen Co.) supplemented with 10% FBS; (iv) LIPOFECTAMINE™ 2000 Reagent (Invitrogen Co.); (v) plasmids: pCMV-human GLP1R and pGL3-1905 reporter plasmid; (vi) GLP1 (7-36 amide) peptide (Sigma Co.); and (vii) BRIGHT-GLO™ Luciferase Assay System (Promega Co.).
Instruments used in this assay included: (i) Form a carbon dioxide incubator (Thermo Form a Co.); and (ii) Flexstation 3 (Molecular Device Co.).
Before transfection, CHO cells were plated into a 6-well culture plate at 800,000/2 mL/well, and cultured at 37° C. in 5% CO2 overnight. On the transfection day, cells were transfected with receptor plasmid and reporter plasmid using LIPOFECTAMINE™ 2000 reagent. After 6-hour transfection, cells were digested and seeded into 96-well plates at 20,000/100 μL/well. After 14-16 hour incubation, transfected cells were washed with 100 μL serum-free RPMII 640 medium first, and then added 50 μL of the culture medium. The GLP-1 standard and test compounds were respectively diluted to a series of concentrations, which were then added into the above 96-well culture plate at 50 μL/well. The cells were incubated at 37° C. in 5% CO2 for 6 hrs. The activity of luciferase was detected using BRIGHT-GLO™ Luciferase Analytic System, and the reading was performed with a Flexstation3 plate reader machine.
`CC(C)(C)OC(=O)Nc1ccc(-c2nc(-c3ccc(CC(NC(=O)c4cncc(-c5ccc(F)cc5)c4)C(=O)O)cc3F)no2)cc1` (centres unmarked) [Compound 14H] was tested, and the activation at 3.16 µM was greater than 60%. `Cc1ccc(-c2ccc(C(=O)NC(Cc3ccc(-c4noc(-c5ccc(NC(=O)OC(C)(C)C)cc5)n4)c(Br)c3)C(=O)O)o2)cc1` (centres unmarked) [Compound 13G] gave an activation at 3.16 µM greater than 60%. For `Cc1ccc(-c2ccc(C(=O)NC(Cc3ccc(-c4nnc(-c5ccc(NC(=O)OC(C)(C)C)cc5)o4)c(F)c3)C(=O)O)o2)cc1` (centres unmarked) [Compound 14F], the activation at 3.16 µM was 40 to 60%.

Same assay, conditions: 6 h; conc. 10 μM; percentage of the activity of the control; read-out: Agonist Activity
Compound `CC(C)c1ccc(S(=O)(=O)NC(Cc2ccc(-c3noc(-c4ccc(NC(=O)OC(C)(C)C)cc4)n3)c(F)c2)C(=O)O)cc1` (centres unmarked) [Compound 11C] has an activation at 10 µM of 20 to 40%. For `CC(C)(C)OC(=O)Nc1ccc(-c2nc(-c3ccc(CC(NC(=O)N4CCN(c5ccc(C(F)(F)F)cc5)CC4)C(=O)O)cc3F)no2)cc1` (centres unmarked) [Compound 12A], the activation at 10 µM was greater than 60%. For `CC(C)(C)OC(=O)Nc1ccc(-c2nc(-c3ccc(CC(NC(=O)c4ccc(-c5ccc([N+](=O)[O-])cc5)o4)C(=O)O)cc3F)no2)cc1` (centres unmarked) [Compound 11G], the activation at 10 µM was greater than 60%. Compound `CC(C)(C)OC(=O)Nc1ccc(-c2nc(-c3ccc(CC(NC(=O)Nc4ccc(-c5ccccc5)cn4)C(=O)O)cc3F)no2)cc1` (centres unmarked) [Compound 13X] has an activation at 10 µM greater than 60%. `Cc1ccc(-c2ccc(C(=O)NC(Cc3ccc(-c4noc(-c5ccc(NC(=O)OC(C)(C)C)cc5)n4)c(C#N)c3)C(=O)O)o2)cc1` (centres unmarked) [Compound 13I] showed an activation at 10 µM of 40 to 60%. With `CC(C)(C)OC(=O)Nc1ccc(-c2nc(-c3ccc(CC(NC(=O)c4ccc(-c5ccccn5)s4)C(=O)O)cc3F)no2)cc1` (centres unmarked) [Compound 13B] the activation at 10 µM was greater than 60%. `CC(C)(C)OC(=O)Nc1ccc(-c2nc(-c3ccc(CC(NC(=O)Nc4ccc(-c5cccc(Cl)c5)cn4)C(=O)O)cc3F)no2)cc1` (centres unmarked) [Compound 13V] gave an activation at 10 µM greater than 60%. Work on `Cc1ccc(-c2cncc(C(=O)NC(Cc3ccc(-c4noc(-c5ccc(NC(=O)OC(C)(C)C)cc5)n4)c(F)c3)C(=O)O)c2)cc1` (centres unmarked) [Compound 14B] yielded an activation at 10 µM greater than 60%. `Cc1ccc(-c2ccc(NC(=O)NC(Cc3ccc(-c4noc(-c5ccc(NC(=O)OC(C)(C)C)cc5)n4)c(F)c3)C(=O)O)nc2)cc1Cl` (centres unmarked) [Compound 13M] was tested, and the activation at 10 µM was greater than 60%. Work on `CC(C)(C)OC(=O)Nc1ccc(-c2nc(-c3ccc(CC(NS(=O)(=O)NCc4ccccc4)C(=O)O)cc3F)no2)cc1` (centres unmarked) [Compound 11Z] yielded an activation at 10 µM of 40 to 60%. With `Cc1ccc(-c2ccc(C(=O)NC(Cc3ccc(-c4noc(-c5ccc(NC(=O)OC(C)(C)C)cc5)n4)c(F)c3F)C(=O)O)o2)cc1` (centres unmarked) [Compound 13F] the activation at 10 µM was greater than 60%. `CC(C)(C)OC(=O)Nc1ccc(-c2nc(-c3ccc(CC(NS(=O)(=O)N4CCN(C(=O)OC(C)(C)C)CC4)C(=O)O)cc3F)no2)cc1` (centres unmarked) [Compound 11W] was tested, and the activation at 10 µM was 40 to 60%. In the case of `CC(C)(C)OC(=O)Nc1ccc(-c2nc(-c3ccc(CC(NC(=O)c4ccc(-c5ccc(C(F)(F)F)cc5)o4)C(=O)O)cc3F)no2)cc1` (centres unmarked) [Compound 11O], the activation at 10 µM is reported as greater than 60%.

Same assay, conditions: 6 h; concentration 1 μM; read-out: Activity (agonist), percentage of the activity of the control
Work on `Cc1ccc(-c2cccc(C(=O)N[C@H](Cc3ccc(-c4noc(-c5ccc(NC(=O)OC(C)(C)C)cc5)n4)c(F)c3)C(=O)O)c2)cc1F` [Compound 6L] yielded an activation at 1 µM of 20 to 40%. `CC(C)(C)OC(=O)Nc1ccc(-c2nc(-c3ccc(CC(NC(=O)c4cccc(NCc5ccccc5)c4)C(=O)O)cc3F)no2)cc1` (centres unmarked) [Compound 3U] gave an activation at 1 µM of 20 to 40%. `Cc1ccc(-c2nc(C(=O)NC(Cc3ccc(C#Cc4ccc(NC(=O)OC(C)(C)C)cc4)c(F)c3)C(=O)O)cs2)cc1` (centres unmarked) [Compound 3E] gave an activation at 1 µM of 40 to 60%.

Same assay, conditions: 6 h; concentration 3 μM; read-out: Activity (agonist), percentage of the activity of the control
In the case of `CC(C)(C)OC(=O)Nc1ccc(-c2nc(-c3ccc(CC(NC(=O)c4cccc(-c5ccc(C(F)(F)F)cc5)c4)C(=O)O)cc3F)no2)cc1` (centres unmarked) [Compound 1W], the activation at 3 µM is reported as greater than 60%. `CC(C)(C)OC(=O)Nc1ccc(-c2nc(-c3ccc(CC(NC(=O)Nc4ccc(N5CCCCC5)cc4)C(=O)O)cc3F)no2)cc1` (centres unmarked) [Compound 4Y] was tested, and the activation at 3 µM was 20 to 40%. With `Cc1ccc(-c2cccc(C(=O)N[C@@H](Cc3ccc(-c4noc(-c5ccc(NC(=O)OC(C)(C)C)cc5)n4)c(F)c3)C(=O)O)c2)cc1` [Compound 8E] the activation at 3 µM was greater than 60%.

Same assay, conditions: 6 h; concentration 3.16 μM; read-out: Activity (agonist), percentage of the activity of the control
Work on `CC(C)(C)OC(=O)Nc1ccc(-c2nc(-c3ccc(CC(NC(=O)c4ccc(-c5ccc(Cl)cc5Cl)o4)C(=O)O)cc3F)no2)cc1` (centres unmarked) [Compound 1L] yielded an activation at 3.16 µM greater than 60%. In the case of `Cc1ccc(NC(=O)NC(Cc2ccc(-c3noc(-c4ccc(NC(=O)OC(C)(C)C)cc4)n3)c(F)c2)C(=O)O)cc1` (centres unmarked) [Compound 4M], the activation at 3.16 µM is reported as greater than 60%. Work on `Cc1ccc(-c2ccc(C(=O)NC(Cc3ccc(-c4noc(-c5ccc(NC(=O)OC(C)(C)C)cc5)n4)cc3C(F)(F)F)C(=O)O)o2)cc1` (centres unmarked) [Compound 5J] yielded an activation at 3.16 µM greater than 60%. Compound `CC(C)(C)OC(=O)Nc1ccc(C(=O)NC(C)(Cc2ccc(OC(=O)c3ccc(NC(=O)OC(C)(C)C)cc3)c(F)c2)C(=O)O)cc1` (centres unmarked) [Compound 1B] has an activation at 3.16 µM greater than 60%. `CC(C)(C)OC(=O)Nc1ccc(-c2nc(-c3ccc(CC(NC(=O)Nc4ccc(Br)nc4)C(=O)O)cc3F)no2)cc1` (centres unmarked) [Compound 4N] was tested, and the activation at 3.16 µM was 20 to 40%. In the case of `CC(C)c1ccc(-c2ccc(C(=O)N[C@H](Cc3ccc(-c4noc(-c5ccc(NC(=O)OC(C)(C)C)cc5)n4)c(F)c3)C(=O)O)o2)cc1` [Compound 6B], the activation at 3.16 µM is reported as 40 to 60%. With `Cc1ccc(-c2ccc(C(=O)N[C@H](Cc3ccc(-c4noc(-c5ccc(NC(=O)OC(C)(C)C)cc5)n4)c(F)c3)C(=O)O)o2)cc1` [Compound 11E] the activation at 3.16 µM was greater than 60%.

Same assay, conditions: 6 h; concentration 5 μM; read-out: Activity (agonist), percentage of the activity of the control
Work on `CC(C)(C)OC(=O)Nc1ccc(-c2nc(-c3ccc(CC(NC(=O)c4ccnc(Cl)c4)C(=O)O)cc3F)no2)cc1` (centres unmarked) [Compound 1F] yielded an activation at 5 µM greater than 60%.

Same assay, conditions: 6 h; concentration 10 μM; read-out: Activity (agonist), percentage of the activity of the control
`Cc1ccc(-c2ccc(C(=O)N[C@H](Cc3ccc(-c4cc(-c5ccc(NC(=O)OC(C)C)cc5)[nH]n4)c(F)c3)C(=O)O)o2)cc1` [Compound 5P] showed an activation at 10 µM greater than 60%. `Cc1ccc(-c2ccc(C(=O)NC(Cc3ccc(C#Cc4ccc(NC(=O)OC(C)(C)C)cc4)c(F)c3)C(=O)O)o2)cc1` (centres unmarked) [Compound 5E] was tested, and the activation at 10 µM was greater than 60%. For `Cc1ccc(-c2nc(C(=O)NC(Cc3ccc(-c4noc(-c5ccc(NC(=O)OC(C)(C)C)cc5)n4)c(F)c3)C(=O)O)co2)cc1` (centres unmarked) [Compound 2X], the activation at 10 µM was greater than 60%. Work on `Cc1ccc(-c2cccc(C(=O)N[C@H](Cc3ccc(-c4noc(-c5ccc(NC(=O)OC(C)(C)C)cc5)n4)c(F)c3)C(=O)O)c2)s1` [Compound 6J] yielded an activation at 10 µM greater than 60%. Work on `Cc1ccc(S(=O)(=O)N2Cc3cc(OC(=O)c4ccc(NC(=O)OC(C)(C)C)cc4)ccc3CC2C(=O)O)cc1F` (centres unmarked) [Compound 5Y] yielded an activation at 10 µM greater than 60%. With `CC(C)Oc1ccc(-c2cccc(C(=O)N[C@H](Cc3ccc(-c4noc(-c5ccc(NC(=O)OC(C)(C)C)cc5)n4)c(F)c3)C(=O)O)c2)cc1` [Compound 6K] the activation at 10 µM was greater than 60%. Compound `CC(C)c1ccc(NC(=O)NC(Cc2ccc(-c3noc(-c4ccc(NC(=O)OC(C)(C)C)cc4)n3)c(F)c2)C(=O)O)cc1` (centres unmarked) [Compound 4W] has an activation at 10 µM of 40 to 60%. For `CC(C)(C)OC(=O)Nc1ccc(-c2nc(-c3ccc(CC(Nc4ccnc(N5CCCCC5)n4)C(=O)O)cc3F)no2)cc1` (centres unmarked) [Compound 3M, 3-{4-[5-(4-tert-Butoxycarbonylamino-phenyl)-[1,2,4]oxadiazol-3-yl]-3-fluoro-phenyl}-2-(2-piperidin-1-yl-pyrimidin-4-ylamino)-propionic acid], the activation at 10 µM was 20 to 40%. For `CC(C)(C)OC(=O)Nc1ccc(-c2nc(-c3ccc(CC(NC(=O)/C=C/c4ccc(F)cc4)C(=O)O)cc3F)no2)cc1` (centres unmarked) [Compound 1C], the activation at 10 µM was greater than 60%. `CC(C)(C)OC(=O)Nc1ccc(-c2nc(-c3ccc(CC(NC(=O)c4cn(Cc5ccc(F)c(F)c5)nn4)C(=O)O)cc3F)no2)cc1` (centres unmarked) [Compound 3C] showed an activation at 10 µM greater than 60%. Compound `Cc1ccc(-c2cccc(C(=O)NC(Cc3ccc(-c4noc(-c5ccc(NC(=O)OC(C)(C)C)cc5)n4)c(F)c3)C(=O)O)n2)cc1` (centres unmarked) [Compound 2F] has an activation at 10 µM of 10 to 20%. In the case of `Cc1ccc(-c2ccc(C(=O)N[C@H](Cc3ccc(/C=C/c4ccc(NC(=O)OC(C)(C)C)cc4)c(F)c3)C(=O)O)o2)cc1` [Compound 5T], the activation at 10 µM is reported as greater than 60%. `CC(C)(C)OC(=O)Nc1ccc(-c2nc(-c3ccc(CC(NC(=O)c4cccc(-c5ccc(Cl)cc5)c4F)C(=O)O)cc3F)no2)cc1` (centres unmarked) [Compound 1S] gave an activation at 10 µM of 40 to 60%. With `CSc1ccc(-c2cccc(C(=O)NC(Cc3ccc(-c4noc(-c5ccc(NC(=O)OC(C)(C)C)cc5)n4)c(F)c3)C(=O)O)n2)cc1` (centres unmarked) [Compound 2O] the activation at 10 µM was greater than 60%.
